Test results published in paper PMC5674221, “Harnessing fungal nonribosomal cyclodepsipeptide synthetases for mechanistic insights and tailored engineering” (Chemical Science, 2017).
Like-named read-outs stand apart in the source and are kept apart here.

Key:
[1] = tested on: Mycobacterium vaccae STI:10670; experiment: Antibacterial inhibition zone test, M. vaccae; type: cell-based; settings: JMRC-No. STI:10670; Supplementary Table 5
Experimental: (§1) Bioactivity assays. Purified octa-enniatin B, octa-beauvericin and hexa-bassianolide were tested for antiparasitic, antibacterial and antifungal bioactivity together with standards of enniatin B, beauvericin and bassianolide. […]
(§2) For antibacterial testing, the following strains were used: Bacillus subtilis STI:10880, Psudomonas aeruginosa ST:337721 (multi-resistent), Staphylococcus aureus ST:33793, Enterococcus faecalis ST:33700 (vancomycin-resistent) and Mycobacterium vaccae STI:10670 (Supplementary […]
(§3) Aspergillus fumigatus Afum:00073 = ATCC46645 (Supplementary Table 6). The bacterial and fungal test strains are deposited at the Jena Microbial Resource Collection at www.jmrc.hki-jena.de. Activity was determined based on inhibition zone diameters in […]
(§4) (antifungal) in accordance to Krieg et al. (2017).10 […]
(§5) Supplementary Table 5: Antibacterial activity of natural and hybrid CDPs. Activity was analyzed by comparison of inhibition zone diameters. […]
(§6) p- Colonies in inhibition zone
(§7) P- Many colonies in inhibition zone
(§8) F- Promotion of inhibition zone
(§9) A- Intimation of inhibition […]

[2] = tested on: Staphylococcus aureus ST:33793; experiment: Antibacterial inhibition zone test, S. aureus; type: cell-based; settings: JMRC-No. ST:33793; Supplementary Table 5
Experimental: as §1, §2, §3, §4, §5, §6, §7, §8, §9

[3] = tested on: Bacillus subtilis STI:10880; experiment: Antibacterial inhibition zone test, B. subtilis; type: cell-based; settings: JMRC-No. STI:10880; Supplementary Table 5
Experimental: as §1, §2, §3, §4, §5, §6, §7, §8, §9

[4] = tested on: Enterococcus faecalis ST:33700 (vancomycin-resistent); type: cell-based; settings: JMRC-No. ST:33700; Supplementary Table 5
Experimental: as §1, §2, §3, §4, §5, §6, §7, §8, §9

[5] = tested on: Penicillium notatum STI:50164; experiment: Antifungal inhibition zone test, P. notatum; type: cell-based; settings: JMRC-No. STI:50164; Supplementary Table 6; solvent gave 10
Experimental: as §1
(§10) Table 5). Antifungal activity was determined against Sporobolomyces salmonicolor […]
as §3, §4, §6, §7, §8
(§11) A- Intimation of inhibition
(§12) Supplementary Table 6: Antifungal activity of natural and hybrid CDPs. Activity was analyzed by comparison of inhibition zone diameters.

Cytotoxicity, L6 cells = settings: rat
Experimental: as §1
67/L82 (host free axenic amastigotes) to determine the IC50 values as previously described by Orhan et al. (2010) (Supplementary Table 4).9 Additionally, cytotoxicity was determined with an L6 rat-derived cell line (Supplementary Table 4). […]
Supplementary Table 4: Antiparasitic activity and cytotoxicity of natural and hybrid CDPs. […]
(§13) Cytotoxicity was analyzed with rat-derived L6 cells. […]

[6] = tested on: Trypanosoma cruzi Tulahuen C4 (amastigotes); experiment: microbe, parasite or virus in culture; settings: for IC50: read-out: IC50 Trypanosoma cruzi; for fold lower IC50 against T. cruzi than the reference drug benznidazole: given as 'up to'
Experimental: Bioactivity assays. Purified octa-enniatin B, octa-beauvericin and hexa-bassianolide were tested for antiparasitic, antibacterial and antifungal bioactivity together with standards of enniatin B, beauvericin and bassianolide. Antiparasitic activity assays were performed against Trypanosoma brucei rhodesiense STIB 900 (trypomastigotes), Trypanosoma cruzi Tulahuen C4 (amastigotes) and Leishmania donovani MHOM-ET-67/L82 (host free axenic amastigotes) to determine the IC50 values as previously described by Orhan et al. (2010) (Supplementary Table 4).9 Additionally, cytotoxicity was determined with an L6 rat-derived cell line (Supplementary Table 4). […]
(§14) Supplementary Table 4: Antiparasitic activity and cytotoxicity of natural and hybrid CDPs. Antiparasitic activity was analyzed against Trypanosoma brucei rhodesiense STIB 900 (trypomastigotes), Trypanosoma cruzi Tulahuen C4 (amastigotes) and Leishmania donovani MHOM-ET-67/L82 (host free axenic amastigotes) as IC50-values.
as §13

[7] = tested on: Candida albicans STI:25000; experiment: Antifungal inhibition zone test, C. albicans; type: cell-based; settings: JMRC-No. STI:25000; Supplementary Table 6
Experimental: as §1, §10, §3, §4, §6, §7, §8, §11, §12

[8] = tested on: Pseudomonas aeruginosa ST:337721 (multi-resistent); experiment: Antibacterial inhibition zone test, P. aeruginosa; type: cell-based; settings: JMRC-No. ST:337721; Supplementary Table 5; solvent gave 10
Experimental: as §1, §2, §3, §4, §5, §6, §7, §8, §9

[9] = tested on: Leishmania donovani MHOM-ET-67/L82 (host free axenic amastigotes); experiment: microbe, parasite or virus in culture; settings: for IC50: read-out: IC50 Leishmania donovani
Experimental: as §1
as §14, with “IC50-values. […]” for “IC50-values.”

[10] = tested on: Trypanosoma brucei rhodesiense STIB 900 (trypomastigotes); experiment: microbe, parasite or virus in culture
Experimental: as §1
as §14, with “IC50-values. […]” for “IC50-values.”

[11] = tested on: Aspergillus fumigatus Afum:00073 = ATCC46645; experiment: Antifungal inhibition zone test, A. fumigatus; type: cell-based; settings: JMRC-No. ATCC 46645; Supplementary Table 6
Experimental: as §1, §10, §3, §4, §6, §7, §8, §11, §12

[12] = tested on: Sporobolomyces salmonicolor ST:35974; experiment: Antifungal inhibition zone test, S. salmonicolor; type: cell-based; settings: JMRC-No. ST:35974; Supplementary Table 6; solvent gave 10
Experimental: as §1, §10, §3, §4, §6, §7, §8, §11, §12

[13] = Tulahuen C4, amastigotes, Supplementary Table 4 and main text
[14] = MHOM-ET-67/L82, host free axenic amastigotes, Supplementary Table 4 and main text
[15] = read-out: IC50 Trypanosoma b. rhodesiense, STIB 900, trypomastigotes, Supplementary Table 4

Compound	Inhibition zone diameter, Mycobacterium vaccae [1]	Inhibition zone diameter, Staphylococcus aureus [2]	Inhibition zone diameter, Bacillus subtilis [3]	Inhibition zone diameter, Enterococcus faecalis (vancomycin-resistent) [4]	Inhibition zone diameter, Penicillium notatum [5]	IC50 (Cytotoxicity, L6 cells) [nM]	IC50 [6, 13] [nM]	Inhibition zone diameter, Candida albicans [7]	Inhibition zone diameter, Pseudomonas aeruginosa (multi-resistent) [8]	IC50 [9, 14] [nM]	IC50 [10, 15] [nM]	Inhibition zone diameter, Aspergillus fumigatus [11]	Inhibition zone diameter, Sporobolomyces salmonicolor [12]	activity against Trypanosoma cruzi (in words) [6]	activity against Leishmania donovani (in words) [9]	activity against Trypanosoma b. rhodesiense (in words) [10]	fold lower IC50 against T. cruzi than the reference drug benznidazole [6]	IC50 ([9]; Leishmania donovani) [nM]	IC50 ([10]; Trypanosoma brucei, RHODESIENSE|STIB900, read-out: IC50 Trypanosoma b. rhodesiense) [nM]	IC50 ([6]; Trypanosoma cruzi, TULAHUEN) [nM]
O=C(O)c1cn(C2CC2)c2cc(N3CCNCC3)c(F)cc2c1=O [Ciprofloxacin, ciprofloxacin]	20p	0	29																	
CC(C)C[C@H]1C(=O)O[C@H](C(C)C)C(=O)N(C)[C@@H](CC(C)C)C(=O)O[C@H](C(C)C)C(=O)N(C)[C@@H](CC(C)C)C(=O)O[C@H](C(C)C)C(=O)N(C)[C@@H](CC(C)C)C(=O)O[C@H](C(C)C)C(=O)N1C [bassianolide]	12p	0	0	0	0	5110	1390	0	0	195	1690	0	0							
CC(C)C[C@H]1C(=O)O[C@H](C(C)C)C(=O)N(C)[C@@H](CC(C)C)C(=O)O[C@H](C(C)C)C(=O)N(C)[C@@H](CC(C)C)C(=O)O[C@H](C(C)C)C(=O)N1C [hexa-bassianolide]	14p	0	10	0	0	6350	3520	0		315	1260	0	0	active	active	active				
CC(C)[C@H]1OC(=O)[C@H](Cc2ccccc2)N(C)C(=O)[C@@H](C(C)C)OC(=O)[C@H](Cc2ccccc2)N(C)C(=O)[C@@H](C(C)C)OC(=O)[C@H](Cc2ccccc2)N(C)C(=O)[C@@H](C(C)C)OC(=O)[C@H](Cc2ccccc2)N(C)C1=O [octa-beauvericin]	12p	0	0	0	0	1580	533	0	0	144	782		0				up to 12 fold			
CCCCCCCCCCCCCCCCOP(=O)([O-])OCC[N+](C)(C)C [Miltefosine, miltefosine]						138000												576		
CC(C)[C@H]1C(=O)O[C@H](C(C)C)C(=O)N(C)[C@@H](C(C)C)C(=O)O[C@H](C(C)C)C(=O)N(C)[C@@H](C(C)C)C(=O)O[C@H](C(C)C)C(=O)N1C [enniatin B]	24	15P	15p			4110	2300	0		719	1050	0	0							
C[C@@H]1[C@H](O)[C@@H](C)/C=C/C=C/C=C/C=C/C=C/C=C/C=C/[C@H](O[C@@H]2O[C@H](C)[C@@H](O)[C@H](N)[C@@H]2O)C[C@@H]2O[C@](O)(C[C@@H](O)C[C@@H](O)[C@H](O)CC[C@@H](O)C[C@@H](O)CC(=O)O[C@H]1C)C[C@H](O)[C@H]2C(=O)O [Amphotericin B, amphotericin B]					18p			20				20	18p							
Nc1nc(N)nc(Nc2ccc([As]3SCC(CO)S3)cc2)n1 (stereo not drawn) [Melarsoprol, melarsoprol]						28600													7	
O=C(Cn1ccnc1[N+](=O)[O-])NCc1ccccc1 [Benznidazole, benznidazole]						> 380000														6530
CC(C)[C@H]1OC(=O)[C@H](Cc2ccccc2)N(C)C(=O)[C@@H](C(C)C)OC(=O)[C@H](Cc2ccccc2)N(C)C(=O)[C@@H](C(C)C)OC(=O)[C@H](Cc2ccccc2)N(C)C1=O [beauvericin]	27	13	18	18F	14p	1940	764	0	14P	311	1630		0							
CC(C)[C@H]1C(=O)O[C@H](C(C)C)C(=O)N(C)[C@@H](C(C)C)C(=O)O[C@H](C(C)C)C(=O)N(C)[C@@H](C(C)C)C(=O)O[C@H](C(C)C)C(=O)N(C)[C@@H](C(C)C)C(=O)O[C@H](C(C)C)C(=O)N1C [octa-enniatin B]						3900	1750			70	873						up to 12 fold			
